From publication PMC12856317, “A reversible feedback mechanism regulating mitochondrial heme synthesis” (The Journal of Biological Chemistry, 2025)

Molecular target: T1, WT holoALAS2 (residues 54–587) (Homo sapiens, UniProt P22557)
T1 construct: His6-SUMO (N, cleaved yes); made in house; host or cells: Escherichia coli BL21-Codon Plus (DE3)-RIL
T1 sequence (P22557 54-587): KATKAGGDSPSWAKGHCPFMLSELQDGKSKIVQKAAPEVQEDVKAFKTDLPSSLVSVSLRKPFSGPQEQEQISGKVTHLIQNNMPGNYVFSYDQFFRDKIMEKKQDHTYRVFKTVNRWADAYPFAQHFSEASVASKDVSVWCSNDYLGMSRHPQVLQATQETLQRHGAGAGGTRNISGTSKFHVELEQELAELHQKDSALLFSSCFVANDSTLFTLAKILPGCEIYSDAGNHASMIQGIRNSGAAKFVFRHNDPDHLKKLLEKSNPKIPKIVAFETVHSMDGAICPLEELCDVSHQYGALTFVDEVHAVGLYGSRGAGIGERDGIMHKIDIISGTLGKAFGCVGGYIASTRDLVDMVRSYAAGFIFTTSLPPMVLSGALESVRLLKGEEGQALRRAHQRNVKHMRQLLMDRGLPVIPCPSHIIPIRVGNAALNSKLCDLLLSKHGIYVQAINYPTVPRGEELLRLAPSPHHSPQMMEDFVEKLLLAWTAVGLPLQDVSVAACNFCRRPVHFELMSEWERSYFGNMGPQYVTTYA
Assay: Succinyl-CoA:hemin competition analysis
Assay type: biochemical
Settings: WT holoenzyme
Experimental: A discontinuous colorimetric activity assay adapted from Shoolingin-Jordan et al. and Bailey et al. was used to measure the enzyme activity ([48], [74]). The reaction was initiated by adding 100 nM purified enzyme to 50 mM potassium phosphate, pH 7.0, 10 mM MgCl2, 1 mM DTT, 100 mM glycine, and 300 μM succinyl-CoA (175 μl total). The reaction was incubated at 37 °C for 15 min and terminated with 100 μl of cold 10% trichloroacetic acid. The precipitated protein was removed by centrifugation for 5 min at 13,000g, and 240 μl of the supernatant was mixed with 240 μl of 1 M sodium acetate, pH 4.6. To derivatize ALA, 20 μl of acetylacetone was added to the mixture and boiled at 100 °C for 10 min. After the sample was cooled for 20 min, 100 μl aliquots were transferred into a clear 96-well plate in triplicate. An equal volume of Ehrlich’s reagent (p-Dimethylaminobenzaldehyde, DMAB) was added to each well, and the absorbance was monitored at 553 nm using a microplate reader (Thermo Fisher Scientific). The peak absorbance value was converted to molar ALA concentration using ε553 = 60,400 M^−1 cm^−1.
For inhibitor competition experiments, the apoenzymes were preincubated with hemin or PLP (0–100 μM) for 15 min at 25 °C in the dark before initiating the reaction. Next, either PLP or hemin (0–100 μM) was titrated into the reactions to measure enzyme activation after hemin inhibition or enzyme inhibition of the PLP-treated apoenzyme, respectively. For succinyl-CoA:hemin competition analyses, the WT holoenzyme was mixed with hemin (0, 25, 50, and 100 μM), followed by the addition of increasing succinyl-CoA concentrations (0, 25, 50, 100, 250, and 500 μM). All experiments were performed with a minimum of three biological replicates, each with three technical replicates. Data were fit using nonlinear regression to generate an agonist dose-response curve (EC50) or an inhibitor dose-response curve (IC50). Lineweaver-Burk analysis was performed using the resulting kinetic parameters (Vmax and KM) in GraphPad Prism 10.

- fold lower Vmax (heme versus no heme, varied succinyl-CoA): 8 fold
- mode of inhibition (varied succinyl-CoA and heme): uncompetitively
Substance: ferric chloride heme [hemin]
